In series [1] the test system is patients with advanced androgen-independent prostate cancer. Kind of series: Open-label two-phase study of oral 24-(OH)-D2 in prostate cancer. The format is in vivo. The note with it: for progression of metastatic disease (CAT scans, X-rays and bone scans): second phase, after one and two years. An excerpt:
Patients with advanced androgen-independent prostate cancer participate in an open-label study of 24-(OH)-D2. […] On admission to the study, patients begin a course of therapy with oral 24-(OH)-D2 lasting 26 weeks, while discontinuing any previous use of calcium supplements, vitamin D supplements, and vitamin D hormone replacement therapies. During treatment, the patients are monitored at regular intervals for: (1) hypercalcemia, hyperphosphatemia, hypercalciuria, hyperphosphaturia and other toxicity; (2) evidence of changes in the progression of metastatic disease; and (3) compliance with the prescribed test drug dosage.
The study is conducted in two phases. During the first phase, the maximal tolerated dosage (MTD) of daily oral 24-(OH)D2 is determined by administering progressively higher dosages to successive groups of patients. All doses are administered in the morning before breakfast. The first group of patients is treated with 25.0 μg of 24-(OH)D2. Subsequent groups of patients are treated with 50.0, 75.0 and 100.0 μg/day. Dosing is continued uninterrupted for the duration of the study unless serum calcium exceeds 11.6 mg/dL, or other toxicity of grade 3 or 4 is observed, in which case dosing is held in abeyance until resolution of the observed toxic effect(s) and then resumed at a level which has been decreased by 10.0 μg.
During the second phase, patients are treated with 24-(OH)D2 for 24 months at 0.5 and 1.0 times the MTD.

Series [2] deals with renal patients with secondary hyperparathyroidism. The experiment in a line: Clinical trial of 24-OH-D2 for secondary hyperparathyroidism in end stage renal disease. The format is in vivo, human. As to the method:
Thirty renal patients are enrolled in a clinical trial to study secondary hyperparathyroidism. The patients show baseline iPTH levels greater than 1000 pg/mL. An initial dose of 24-OH-D2 (50 μg 3 times/week) is increased (maximum, 100 μg 3 times/ week) or decreased as necessary to attain and maintain iPTH in the range of 150–300 pg/mL. After 11–12 weeks of treatment, the iPTH levels of the patients decrease to below 1000 pg/mL, and in many cases to below 500 pg/mL.

Series [3] deals with dermatitis (contact and ectopic) patients. Kind of series: Double blind study of oral 24-OH-D2 formulation in dermatitis (contact and ectopic). It counts as in vivo, human. The conditions noted are these: daily oral 10.0 to 20.0 μg, four to six weeks. As to the method: An oral dosage formulation containing 24-OH-D2 is evaluated in a double blind study for therapeutic efficacy of the formulation in the treatment of dermatitis (contact and ectopic). The formulation evaluated contains 10.0 to 20.0 μg of 24-OH-D2. […] The patients are treated in an outpatient clinic and are divided into an experimental and control population. They are instructed to take the medication once a day, in the morning before breakfast.
In each patient (experimental and control) an area of the skin containing a lesion is selected which is ordinarily covered by clothing, and the patients are instructed not to expose the skin area selected for study to sunlight. The area of the lesion is estimated and recorded, and the lesion(s) is photographed. Relevant details of the photographic procedure are recorded so as to be reproduced when the lesions are next photographed (distance, aperture, angle, background, etc.).
Evaluations of erythema, scaling, and thickness are conducted at weekly intervals by a physician. The final evaluation is usually carried out at the end of four to six weeks of treatment.

The test system of series [4] is cytotoxic thymus-derived lymphocyte (CTL) activity. Kind of series: Immunological testing: CTL activity in mice immunized with allogeneic P815 tumor cells. The format is in vivo, C57BL/6 mice. The conditions noted are these: both tests: 5 micrograms daily i.p., or 10 micrograms i.p. twice; assay 10 days after immunization. As to the method:
Female C57BL/6 mice are used between the ages of 9–12 weeks. Mice are given food and water ad libitum and are kept in a 12-hour light and 12-hour dark cycle.
A known balanced salt solution (BSS) is prepared and supplemented to 0.01 molar with HEPES buffer.
The test compound, 24-OH-D2, is dissolved in dimethylsulfoxide at final concentrations of 0.2 or 0.4 mg per ml. When working with vitamin D compounds, conditions of reduced lighting were employed.
Mice are apportioned at 4 per group and are inoculated intraperitoneally with 3×10^6 allogeneic P815 tumor cells and the resulting cytotoxic thymus-derived lymphocyte (CTL) activity is assessed 10 days later. Mice are treated by the intraperitoneal route with 25 microliters of test compound dissolved in dimethylsulfoxide or with dimethylsulfoxide only (vehicle control). […]
Ten days after immunization of mice with P815 cells, single spleen cell suspensions are prepared by passage of spleens through a steel mesh into BSS and are subsequently washed twice with BSS. […] Cytotoxic T lymphocyte activity is determined individually on spleen cells from each animal in each group and the results are expressed as the mean CTL activity (as percent specific Cr release) of each group ± the standard deviation.

Series [5] is described as follows: In vivo generation of 1α,24-(OH)2-D2 in vitamin D-deficient rats (plasma metabolites by HPLC). The note with it: vitamin D-deficient rats; oral or intraperitoneal supplementation; HPLC.
Method: 24-OH-D2 was administered (either oral or intraperitoneal supplementation) to vitamin D-deficient rats. Lipid extracts of the plasma were prepared and the metabolites purified by the method of Horst et al. (Horst, R. L., Koszewski, N. J. and Reinhardt, T. A., Biochem., 29:578–82 (1990) and incorporated herein by reference) described below for synthesizing standard biological 1α,24-(OH)2D2.

In the case of `C=C1CC[C@H](O)C/C1=C/C=C1\CCC[C@]2(C)[C@@H]([C@H](C)/C=C/C(C)(O)C(C)C)CC[C@@H]12` (some centres unmarked) [24-OH-D2, 24-hydroxyvitamin D2], in series [1] (first phase), the “MTD level relative to what can be achieved with 1α,25-(OH)2D3” value is 10- to 50 fold and the “circulating levels of 1α,25-(OH)2D3” value is “suppressed, often to undetectable levels”. For the same compound, in series [1] (in vivo), the “levels of circulating 24-(OH)D2 versus dosage administered” value was “increase proportionately with the dosage administered”; the “maximum levels of circulating 24-(OH)D2” value is “above 100 pg/mL”; the “serum and urine calcium” value is “elevated in a dose responsive manner”. Also, in series [1] (higher dosage (1.0 times the MTD)), the “progression of metastatic disease (CAT scans, X-rays and bone scans)” value is “stable disease and partial or complete remission in many patients”. Besides, the “progression of metastatic disease (CAT scans, X-rays and bone scans)” value in series [1] (lower dosage (0.5 times the MTD)) is “stable disease or partial remission in many patients”. In addition, in series [1] (treated with the MTD for at least six months), the “bone pain associated with metastatic disease” value is “significantly diminished”. In addition, the “iPTH levels of the patients” value in series [2] (after 11–12 weeks, baseline greater than 1000 pg/mL, 50 μg 3 times/week, titrated) was “below 1000 pg/mL”. Moreover, the “iPTH levels, in many cases” value in series [2] (after 11–12 weeks, in many cases) is “below 500 pg/mL”. For the same compound, in series [2] (during the study), the episodes of hypercalcemia result is on record as “few episodes of hypercalcemia”. The “degree of erythema, scaling, and thickness versus control patients” value in series [3] was “significantly reduces”. For the same compound, the “CTL activity versus vehicle control” value in series [4] is “statistically significant reduction”. Also, in series [5], the “metabolite isolated from plasma lipid extracts versus standard 1α,24-(OH)2D2” value is “co-migrated on HPLC with the standard 1α,24-(OH)2D2”.
